≈ marks a conversion by molar mass, not a printed value. Like-named read-outs stand apart in the source and are kept apart here.
Columns and labels:
[1] = Extraction experiments, 1-octanol-water partition coefficient; format: physicochemical; details: 25 °C, read-out: Partition coefficient 1-octanol–water, P oc/w (converted)
Description: The equipment described above was also used for the determination of the 1-octanol-water partition coefficients. […] The partition coefficient was evaluated as:1 Poc/w=Coc/Cw where C oc and C w are the molar concentrations of the solute in the 1-octanol and water phases, respectively. The correctness of the P oc/w value of each compound was verified by checking the mass balance of the starting amount of the substance and the total amount of the substance partitioned between the two phases.

[2] = Solubility in water or 1-octanol (saturated solutions, UV-Vis); format: physicochemical; details: for solubility: thermodynamic from solid, water
Description: The sample of substance examined (10 mg or 80 mg for 6-Me-TACV) was placed in a glass ampoule and double-distilled, deionized water (Millipore, Elix 5 purifier), or pure anhydrous 1-octanol (Sigma 99 %) was added. To attain thermodynamic equilibrium, the solute and the solvent were mixed continuously for a minimum of 4 days at a speed of 25 rpm. After the experiment was completed, the sample was centrifuged at 40,000 rpm for 40 min at 25 ± 0.1 °C, the supernatant liquid was collected, diluted, and its concentration determined with a UV–Vis (Varian Carry IE) spectrophotometer. The experiments were repeated at least three times for each solubility.

[3] = Solubility in buffered cyclodextrin solutions (excess method of Higuchi and Connors); format: physicochemical; parameters: Stability constant K s of HP-β-CD complex: unit not given here; details: for Correlation parameter a (Eq. 2, Cs = a + b·CCD) / Correlation parameter b (Eq. 2, Cs = a + b·CCD): buffered HP-β-CD solutions
Description: Solubilities of the studied compounds was ensured according to the excess method of Higuchi and Connors. […] An excess amount of compounds 4-9 and 11-12 was added to 1.5 mL of aqueous phosphate buffer (concentration of buffer was equal 0.067 mol·dm^-3) solutions, (pH = 5.5 or 7.0) containing various concentration of HP-β-CD. The cyclodextrin concentration changed in the range of 10^-3 to 2 × 10^-2 mol·dm^-3. The suspensions were shaken in screw-capped plastic vials in a water bath thermostat with the volume of 60 dm^3 (home made apparatus by IChF PAN) at 25 and 37 °C. After 7 days equilibrium was reached and then the suspensions were centrifuged and the absorbance of the studied compounds was measured by UV-Vis spectrophotometry using a Shimadzu UV 2401 PC Spectrometer equipped with a thermostatically controlled cell compartment. During the measurement of absorbance, a buffered-solution of HP-β-CD, of the same concentration as in the studied solution, was always put as the reference. The average values of at least three independent determinations of the absorbance were used for calculation of the concentrations of the particular acyclovir derivatives. […] The main reason for the low solubility of tricyclic acyclovir derivatives with aromatic groups in water is the high hydrophobicity of these substituents. Use of cyclodextrins, which can include aromatic groups into their cavity, may enhance the aqueous solubility of such compounds. For this purpose we used several cyclodextrins and hydroxypropyl-β-cyclodextrin was chosen as being more efficient for complexating the tricyclic acyclovir derivatives. The investigations were performed, for chosen compounds, in various cyclodextrin HP-β-CD, buffered solutions (pH = 5.5 and 7.0) at 25 and 37 °C. […] Values of the correlation parameters a and b for tricyclic acyclovir derivatives complexed by cyclodextrin are presented in Table 3. […] The stability constants of the inclusion complexes between HP-β-CD and acyclovir derivatives have been calculated according to the Higuchi-Connors method using:3 K=b/C0(1-b) where C 0 is the solubility of the sample in solutions without cyclodextrin, obtained by determination of saturated solution concentration of acyclovir derivative solutions. […] These two values can differ, but in our study are very close to each other.

[4] = parameters: method as in earlier work; details: human body ref 1; cited from earlier work
[5] = 25 °C (Table 1), read-out: Solubility in water, C w
[6] = water saturated with 1-octanol, 25 °C, read-out: Solubility in water saturated with 1-octanol, C woc
[7] = 35 °C, read-out: Aqueous solubility, C w
[8] = 45 °C, read-out: Aqueous solubility, C w

SMILES | logP at 2 days [1] | Solubility ratio in 1-octanol and water, C oc/C w ([2]; 25 °C) | Solubility ratio in 1-octanol saturated with water and water saturated with 1-octanol, C ocw/C woc ([2]; 25 °C) | solubility [2, 5] [µM] | solubility [2, 6] [µM] | solubility [2, 7] [µM] | solubility [2, 8] [µM] | Correlation parameter a (Eq. 2, Cs = a + b·CCD) ([3]; pH = 5.5, 25 °C) | Correlation parameter b (Eq. 2, Cs = a + b·CCD) ([3]; pH = 5.5, 25 °C) | Correlation parameter a (Eq. 2, Cs = a + b·CCD) ([3]; pH = 5.5, 37 °C) | Correlation parameter b (Eq. 2, Cs = a + b·CCD) ([3]; pH = 5.5, 37 °C) | Correlation parameter a (Eq. 2, Cs = a + b·CCD) ([3]; pH = 7.0, 25 °C) | Correlation parameter b (Eq. 2, Cs = a + b·CCD) ([3]; pH = 7.0, 25 °C) | Correlation parameter a (Eq. 2, Cs = a + b·CCD) ([3]; pH = 7.0, 37 °C) | Stability constant K s of HP-β-CD complex ([3]; pH = 5.5, 25 °C) | Stability constant K s of HP-β-CD complex ([3]; pH = 5.5, 37 °C) | Stability constant K s of HP-β-CD complex ([3]; pH = 7, 25 °C) | Stability constant K s of HP-β-CD complex ([3]; pH = 7, 37 °C) | Correlation parameter b (Eq. 2, Cs = a + b·CCD) ([3]; pH = 7.0, 37 °C) | Absorption relative to application of acyclovir [4]
O=c1c2ncn(COCCO)c2nc2[nH]c(-c3ccc(-c4ccccc4)cc3)cn12 [Compound 9] | 0.491 | 8.90 | 3.10 | 229 (≈ 91.9 µg/mL) | 583 (≈ 234 µg/mL) | 554 (≈ 222 µg/mL) | 658 (≈ 264 µg/mL) | 2.18 × 10^−4 | 2.12 × 10^−2 | 5.03 × 10^−4 | 2.98 × 10^−2 | 2.65 × 10^−4 | 2.84 × 10^−2 | 5.95 × 10^−4 | 100 (±8) | 61 (±5) | 110 (±6) dm·mol^−1 | 68 (±4) |  | 
O=c1c2ncn(COCCO)c2nc2[nH]c(-c3ccc4ccccc4c3)cn12 [Compound 12] | 0.549 | 4.37 | 3.58 | 166 (≈ 62.3 µg/mL) | 191 (≈ 71.7 µg/mL) | 256 (≈ 96.1 µg/mL) | 265 (≈ 99.5 µg/mL) | 2.99 × 10^−5 | 0.88 × 10^−2 | 3.37 × 10^−5 | 0.93 × 10^−2 | 3.05 × 10^−5 | 0.94 × 10^−2 | 4.29 × 10^−5 | 297 (±7) | 279 (±9) | 311 (±9) | 305 (±9) | 1.29 × 10^−2 | 
CC(C)[C@H](N)C(=O)OCCOCn1cnc2c(=O)[nH]c(N)nc21 [valacyclovir] |  |  |  |  |  |  |  |  |  |  |  |  |  |  |  |  |  |  |  | four times higher

From paper PMC3646166, “Comparison of Aqueous and 1-Octanol Solubility as well as Liquid–Liquid Distribution of Acyclovir Derivatives and Their Complexes with Hydroxypropyl-β-Cyclodextrin” (Journal of Solution Chemistry, 2013)
